According to patent US11279733B2, “Peptide antibiotics” (priority 2017, dated 2022):
≈ marks a conversion by molar mass, not a printed value. Positions of bridges follow the written chain, without caps; N, C: chain ends. Non-standard residues stand in square brackets, D forms with d. Residues, ends and D or L forms follow the SMILES beside them. *: point of attachment. Decanoyl(3R-OH) = CCCCCCC[C@@H](O)CC(=O)*; dDab = NCC[C@@H](N)C(=O)O; Orn = NCCC[C@H](N)C(=O)O; dDap = NC[C@@H](N)C(=O)O; Dab = NCC[C@H](N)C(=O)O

Columns and labels:
A. baumannii ATCC 19606 = settings: ATCC 19606
Outline: (§1)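 Mid-log cultures grown in Mueller Hinton broth at 37° C were tested by 2-fold broth microdilution at 5×10^5 CFU/mL final. Compounds were dissolved in water and tested over a final range of 32 to 0.015 μg/mL.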

A. baumannii GN_093 PmxR = settings: GN 093 PmxR
Outline: as §1

E. coli ATCC 25922 = settings: ATCC 25922
Outline: as §1

K. pneumoniae ATCC 13883 = settings: ATCC 13883
Outline: as §1

[1] = tested on: K. pneumoniae ATCC 700603, MDR; settings: ATCC 700603
Outline: as §1

[2] = tested on: K. pneumoniae ATCC BAA-2146, NDM-1 pos; settings: ATCC BAA-2146
Outline: as §1

[3] = tested on: K. pneumoniae GN_102 PmxR; settings: GN 102 PmxR
Outline: as §1

[4] = tested on: K. pneumoniae GN_106, PmxR; settings: GN 106, PmxR
Outline: as §1

P. aeruginosa ATCC 27853 = settings: ATCC 27853
Outline: as §1

[5] = tested on: P. aeruginosa GN_043, PmxR; settings: polymyxin-resistant
Outline: as §1

[6] = tested on: P. aeruginosa GN_105, PmxR; settings: GN 105, PmxR
Outline: as §1

[7] = tested on: S. aureus ATCC 25923, MSSA; settings: ATCC 25923
Outline: as §1

Neisseria gonorrhoeae = assay: MIC determination, Neisseria gonorrhoeae; format: cell-based; settings: for MIC N. gonorrhoeae F89: strain F89; for MIC N. gonorrhoeae FA19 ATCC BAA-1838: strain FA19 ATCC BAA-1838; for MIC N. gonorrhoeae FA1090 A25 ATCC 700825: strain FA1090 A25 ATCC 700825; for MIC N. gonorrhoeae H041: strain H041
Outline: as §1

[8] = In vitro nephrotoxicity, LDH release from primary human kidney cells; format: cell-based; settings: pH 7.4
Text: (§2) hPT cells were derived from whole human kidneys procured by the International Institute for the Advancement of Medicine (Edison, N.J., USA). All tissue was scored by a pathologist as normal (i.e., derived from non-cancerous, non-diseased tissue). Cell isolation procedures were based on those originally described by Todd et al. (1996) and modified (Cummings and Lash, 2000; Cummings et al., 2000) with use of sterile conditions (i.e., all instruments and glassware were autoclaved and all buffers were filtered through a 0.2-μm pore-size filter). Renal cortex and outer stripe were cut into slices, washed with sterile PBS, minced, and the pieces were placed in a trypsinization flask filled with 300 ml of sterile, filtered Hanks' buffer, containing 25 mM NaHCO3, 25 mM HEPES, pH 7.4, 0.5 mM EGTA, 0.2% (w/v) bovine serum albumin, 50 μg/ml gentamicin, 1.3 mg/mL collagenase, and 0.59 mg/ml CaCl2), which was filtered prior to use. Whole kidneys were perfused with Wisconsin medium and kept on ice until they arrived at the laboratory, which was usually within 24 h of removal from the donor.
(§3) All buffers were continuously bubbled with 95% O2/5% CO2 and were maintained at 37° C. Minced cortical pieces from whole kidneys were subjected to collagenase digestion for 60 min, after which the supernatant was filtered through a 70-μm mesh filter to remove tissue fragments, centrifuged at 150×g for 7 min, and the pellet resuspended in Dulbecco's Modified Eagle's Medium: Ham's F12 Medium (DMEM/F12; 1/1). Approximately 5 to 7×10^6 cells were obtained per 1 g of human kidney cortical tissue.
(§4) hPT cells were resuspended in 2 mL of DMEM/F12 and diluted to 500 mL with cell culture medium, which was serum-free and hormonally-defined. Composition of this supplemented medium was based on earlier work establishing optimal conditions for primary culture of rat PT cells (Lash et al., 1995). Basal medium was a 1:1 mixture of DMEM/F12. […] Cells were seeded in a volume of 0.5 ml at a density of 50-100 μg protein per cm^2 (0.5-1.0×10^6 cells/ml) on 24-well plates. Cultures were grown at 37° C. in a humidified incubator under an atmosphere of 95% air/5% CO2 at pH 7.4. Cultures were grown to approximately 80%-90% confluence (generally 5-6 days) prior to experiments. Cells were harvested by either scraping the flasks with a Teflon scraper or by brief incubation with Cellstripper (Cellgro, Herndon, Va., USA) (in Ca^2+- and Mg^2+-free Hanks' buffer).

[9] = In vitro nephrotoxicity, GGT release from primary human kidney cells; format: cell-based; settings: pH 7.4
Text: as §2, §3, §4
Release of gamm-glutanyltransferase was assessed according to Orlowski, M., Meister, A. 1963. γ-Glutamyl-p-nitroanilide: A new convenient substrate for determination and study of L- and D-γ-glutamyltranspeptidase activities (Biochim. Biophys. Acta 73: 679-681.)
A 2.5 mM substrate Solution was prepared from 67 mg γ-glutamyl-p-nitroanilide+264 mg glycylglycine in 100 mL of 0.05 M Tris, pH 8.2 (50 mM Tris, pH 8.2: 605 mg Tris/HCl per 100 mL).
For the assay in 96-well plates, 6-μL of sample and 0.3 mL substrate solution were added to each well. The absorbance was measured at 410 nm for the appearance of product, p-nitroanilide (molar extinction=8800 M^−1 cm^−1).

in vitro = settings: human
Outline: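 Fluorescence read-out (excitation 560, emission 590) after a 2 h, 37 °C incubation with 5 μM resazurin, following 24 h compound treatment of cells plated at 4000 per well. CC50 values come from fitting dose–response curves of growth inhibition.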

SMILES	MIC, A. baumannii ATCC 19606 (A. baumannii ATCC 19606)	MIC, E. coli ATCC 25922 (E. coli ATCC 25922)	MIC, K. pneumoniae ATCC 13883 (K. pneumoniae ATCC 13883)	MIC, K. pneumoniae ATCC 700603, MDR [1]	MIC, K. pneumoniae ATCC BAA-2146, NDM-1 pos [2]	MIC, P. aeruginosa ATCC 27853 (P. aeruginosa ATCC 27853)	MIC N. gonorrhoeae F89 (Neisseria gonorrhoeae)	MIC N. gonorrhoeae FA19 ATCC BAA-1838 (Neisseria gonorrhoeae)	MIC N. gonorrhoeae FA1090 A25 ATCC 700825 (Neisseria gonorrhoeae)	MIC N. gonorrhoeae H041 (Neisseria gonorrhoeae)	CC50 [8]	CC50 [9]	other results
CCCCCCC[C@@H](O)CC(=O)N[C@H](CCN)C(=O)N[C@H]1CCNC(=O)[C@H](CC(C)C)NC(=O)[C@H](CCN)NC(=O)[C@H](CCCN)NC(=O)[C@H](CC(C)C)NC(=O)[C@@H](Cc2ccccc2)NC(=O)[C@H](CCN)NC1=O [compound 991, 3(R)OH-nC9CO-D-Dab-cyc[L-Dab-L-Dab-D-Phe-L-Leu-L-Orn-L-Dab-L-Leu]] ({Decanoyl(3R-OH)}-[dDab][Dab][Dab][dF]L[Orn][Dab]L; lactam 2-C)	4 µg/mL (≈ 3.78 µM)	4 µg/mL (≈ 3.78 µM)	4 µg/mL (≈ 3.78 µM)	4 µg/mL (≈ 3.78 µM)	4 µg/mL (≈ 3.78 µM)	2 µg/mL (≈ 1.89 µM)	1.3 µg/mL (≈ 1.23 µM)	0.39 µg/mL (≈ 0.368 µM)	1.56 µg/mL (≈ 1.47 µM)	2.08 µg/mL (≈ 1.97 µM)	107 µg/mL (≈ 101 µM)	> 128 µg/mL	MIC, A. baumannii Cl Ptyela 10073 4512:2, PmxR (A. baumannii GN_093 PmxR): 8 µg/mL (≈ 7.56 µM); MIC, K. pneumoniae Cl Koprana 10065 0661:1, PmxR [3]: 1 µg/mL (≈ 0.945 µM); MIC, K. pneumoniae Cl 138-16347-20362, PmxR [4]: 2 µg/mL (≈ 1.89 µM); MIC, P. aeruginosa FADDI-PA070, PmxR ([5]; Table 5): 2 µg/mL (≈ 1.89 µM); MIC, P. aeruginosa PA9704, PmxR [6]: 1 µg/mL (≈ 0.945 µM); MIC, S. Aureus ATCC 25923, MSSA [7]: 8 µg/mL (≈ 7.56 µM)
CCCCCCC[C@@H](O)CC(=O)N[C@H](CN)C(=O)N[C@H]1CCNC(=O)[C@H](CC(C)C)NC(=O)[C@H](CCN)NC(=O)[C@H](CCN)NC(=O)[C@H](CC(C)C)NC(=O)[C@@H](Cc2ccccc2)NC(=O)[C@H](CCN)NC1=O [compound 6442, 3(R)OH-nC9CO-D-Dap-cyc[L-Dab-L-Dab-D-Phe-L-Leu-L-Dab-L-Dab-L-Leu]] ({Decanoyl(3R-OH)}-[dDap][Dab][Dab][dF]L[Dab][Dab]L; lactam 2-C)	4 µg/mL (≈ 3.88 µM)	2 µg/mL (≈ 1.94 µM)	4 µg/mL (≈ 3.88 µM)	4 µg/mL (≈ 3.88 µM)	8 µg/mL (≈ 7.76 µM)	2 µg/mL (≈ 1.94 µM)	1.56 µg/mL (≈ 1.51 µM)	1.56 µg/mL (≈ 1.51 µM)	1.3 µg/mL (≈ 1.26 µM)	1.56 µg/mL (≈ 1.51 µM)	> 128 µg/mL	> 128 µg/mL	MIC A. baumannii GN_093 PmxR (A. baumannii GN_093 PmxR): 4 µg/mL (≈ 3.88 µM); MIC K. pneumoniae GN_102 PmxR [3]: 2 µg/mL (≈ 1.94 µM); MIC K. pneumoniae GN_106, PmxR [4]: 4 µg/mL (≈ 3.88 µM); MIC P. aeruginosa GN_043, PmxR ([5]; Table 6): 2 µg/mL (≈ 1.94 µM); MIC P. aeruginosa GN_105, PmxR [6]: 2 µg/mL (≈ 1.94 µM); MIC, S. aureus ATCC 25923, MSSA [7]: 16 µg/mL (≈ 15.5 µM); CC50 at 24 h (in vitro): > 300 µM
